Results published in ChEMBL document CHEMBL1157236, “A reassignment of (-)-mycothiazole and the isolation of a related diol” (2006).

Legend:
MOLT-4 = test: Growth inhibition of human MOLT4 cells; type: functional
[1] = Growth inhibition of human OVACR4 cells; type: functional
SF-539 = test: Growth inhibition of human SF539 cells; type: functional; conditions: SF-539, read-out: pGI50 (converted)
BT-549 = test: Growth inhibition of human BT549 cells; type: functional
LOX IMVI = test: Growth inhibition of human LOX IMVI cells; type: functional
SF-268 = test: Growth inhibition of human SF268 cells; type: functional
[2] = Growth inhibition of human RXF631 cells; type: functional; conditions: RXF 631, read-out: pGI50 (converted)
MDA-MB-435 = test: Growth inhibition of human MDA-MB-435 cells; type: functional
RXF 393 = test: Growth inhibition of human […] cells; type: functional
K562 = test: Growth inhibition of human K562 cells; type: functional
SF-295 = test: Growth inhibition of human SF295 cells; type: functional
[3] = Growth inhibition of human […] cells; type: functional
[4] = Growth inhibition of human OVACR3 cells; type: functional
Malme-3M = test: Growth inhibition of human MALME3M cells; type: functional; conditions: read-out: pGI50 (converted)
HT-29 = test: Growth inhibition of human HT29 cells; type: functional
PC-3 = test: Growth inhibition of human PC3 cells; type: functional; conditions: PC-3, read-out: pGI50 (converted)
COLO 205 = test: Growth inhibition of human COLO205 cells; type: functional
EKVX = test: Growth inhibition of human EKVX cells; type: functional
NCI-H522 = test: Growth inhibition of human NCI-H522 cells; type: functional
A498 = test: Growth inhibition of human A498 cells; type: functional
UO-31 = test: Growth inhibition of human UO31 cells; type: functional
SR = test: Growth inhibition of human SR cells; type: functional
U-251 = test: Growth inhibition of human U251 cells; type: functional
XF498 = test: Growth inhibition of human XF498 cells; type: functional
[5] = Growth inhibition of human LXFL529 cells; type: functional; conditions: LXFL 529
KM-20L2 = test: Growth inhibition of human KM20L2 cells; type: functional
[6] = Growth inhibition of human OVACR5 cells; type: functional; conditions: OVACR5, read-out: pGI50 (converted)
HCC 2998 = test: Growth inhibition of human HCC2998 cells; type: functional; conditions: HCC 2998, read-out: pGI50 (converted)
T47D = test: Growth inhibition of human T47D cells; type: functional; conditions: read-out: pGI50 (converted)
DMS-273 = test: Growth inhibition of human DMS273 cells; type: functional
SK-OV-3 = test: Growth inhibition of human SK-OV-3 cells; type: functional
HOP-62 = test: Growth inhibition of human HOP62 cells; type: functional; conditions: HOP-62, read-out: pGI50 (converted)
HOP-92 = test: Growth inhibition of human HOP92 cells; type: functional
NCI-H322M = test: Growth inhibition of human NCI-H322M cells; type: functional
M19-MEL = test: Growth inhibition of human M19-MEL cells; type: functional
HCT-116 = test: Growth inhibition of human HCT116 cells; type: functional
DMS-114 = test: Growth inhibition of human DMS114 cells; type: functional
Hs-578T = test: Growth inhibition of human HS578T cells; type: functional; conditions: read-out: pGI50 (converted)
SNB-19 = test: Growth inhibition of human SNB19 cells; type: functional; conditions: SNB-19, read-out: pGI50 (converted)
SK-MEL-2 = test: Growth inhibition of human SK-MEL-2 cells; type: functional; conditions: SK-MEL-2, read-out: pGI50 (converted)
SK-MEL-5 = test: Growth inhibition of human SK-MEL-5 cells; type: functional
786-0 = test: Growth inhibition of human 786-0 cells; type: functional; conditions: 786-0, read-out: pGI50 (converted)
TK-10 = test: Growth inhibition of human TK10 cells; type: functional; conditions: TK-10, read-out: pGI50 (converted)
M14 = test: Growth inhibition of human M14 cells; type: functional
NCI/ADR-RES = test: Growth inhibition of human NCI/ADR-RES cells; type: functional
SN12C = test: Growth inhibition of human SN12C cells; type: functional; conditions: read-out: pGI50 (converted)
KM12 = test: Growth inhibition of human KM12 cells; type: functional
ACHN = test: Growth inhibition of human ACHN cells; type: functional
DLD-1 = test: Growth inhibition of human DLD1 cells; type: functional
NCI-H460 = test: Growth inhibition of human NCI-H460 cells; type: functional
MCF7 = test: Growth inhibition of human MCF7 cells; type: functional; conditions: MCF7, read-out: pGI50 (converted)
CCRF-CEM = test: Growth inhibition of human CCRF-CEM cells; type: functional
SNB-75 = test: Growth inhibition of human SNB75 cells; type: functional
UACC-62 = test: Growth inhibition of human UACC62 cells; type: functional
SW-620 = test: Growth inhibition of human SW620 cells; type: functional
[7] = Growth inhibition of human OVACR8 cells; type: functional
[8] = Growth inhibition of human HL60(TB) cells; type: functional, HL-60(TB); conditions: HL-60
IGROV-1 = test: Growth inhibition of human IGROV1 cells; type: functional
UACC-257 = test: Growth inhibition of human UACC257 cells; type: functional
MDA-N = test: Growth inhibition of human MDA-N cells; type: functional
NCI-H23 = test: Growth inhibition of human NCI-H23 cells; type: functional
A549 = test: Growth inhibition of human A549 cells; type: functional
NCI-H226 = test: Growth inhibition of human NCI-H226 cells; type: functional; conditions: NCI-H226, read-out: pGI50 (converted)
L1210 = test: Selectivity for mouse C38 cells over mouse L1210 cells; type: functional
DU-145 = test: Growth inhibition of human DU145 cells; type: functional; conditions: DU-145, read-out: pGI50 (converted)
CAKI-1 = test: Growth inhibition of human CAKI1 cells; type: functional
HCT-15 = test: Growth inhibition of human HCT15 cells; type: functional
SK-MEL-28 = test: Growth inhibition of human SK-MEL-28 cells; type: functional

## C=CC/C=C\Cc1csc(C(C)(C)[C@H](O)C/C=C\C(=C)CCNC(=O)OC)n1 [MYCOTHIAZOLE]
MOLT-4
  GI50: 39.8 µM
[1]
  GI50: 63.1 µM
SF-539
  GI50: > 100 µM
BT-549
  GI50: 3.16 µM
LOX IMVI
  GI50: 39.8 µM
SF-268
  GI50: 79.4 µM
[2]
  GI50: > 100 µM
MDA-MB-435
  GI50: 50.1 µM
RXF 393
  GI50: 63.1 µM
K562
  GI50: 0.794 µM
SF-295
  GI50: 1.26 µM
[3]
  GI50: 31.6 µM
[4]
  GI50: 25.1 µM
Malme-3M
  GI50: > 100 µM
HT-29
  GI50: 50.1 µM
PC-3
  GI50: > 100 µM
COLO 205
  GI50: 63.1 µM
EKVX
  GI50: 25.1 µM
NCI-H522
  GI50: 20 µM
A498
  GI50: 63.1 µM
UO-31
  GI50: 79.4 µM
SR
  GI50: 0.501 µM
U-251
  GI50: 79.4 µM
XF498
  GI50: 50.1 µM
[5]
  GI50: 20 µM
KM-20L2
  GI50: 50.1 µM
[6]
  GI50: > 100 µM
HCC 2998
  GI50: > 100 µM
T47D
  GI50: > 100 µM
DMS-273
  GI50: 3.16 µM
SK-OV-3
  GI50: 79.4 µM
HOP-62
  GI50: > 100 µM
HOP-92
  GI50: 20 µM
NCI-H322M
  GI50: 15.8 µM
M19-MEL
  GI50: 25.1 µM
HCT-116
  GI50: 0.631 µM
DMS-114
  GI50: 0.0126 µM
Hs-578T
  GI50: > 100 µM
SNB-19
  GI50: > 100 µM
SK-MEL-2
  GI50: > 100 µM
SK-MEL-5
  GI50: 1.26 µM
786-0
  GI50: > 100 µM
TK-10
  GI50: > 100 µM
M14
  GI50: 39.8 µM
NCI/ADR-RES
  GI50: 79.4 µM
SN12C
  GI50: > 100 µM
KM12
  GI50: 63.1 µM
ACHN
  GI50: 50.1 µM
DLD-1
  GI50: 79.4 µM
NCI-H460
  GI50: 31.6 µM
MCF7
  GI50: > 100 µM
CCRF-CEM
  GI50: 31.6 µM
SNB-75
  GI50: 39.8 µM
UACC-62
  GI50: 39.8 µM
SW-620
  GI50: 25.1 µM
[7]
  GI50: 79.4 µM
[8]
  GI50: 10 µM
IGROV-1
  GI50: 31.6 µM
UACC-257
  GI50: 1.58 µM
MDA-N
  GI50: 50.1 µM
NCI-H23
  GI50: 0.251 µM
A549
  GI50: 39.8 µM
NCI-H226
  GI50: > 100 µM
L1210
  Selectivity Index: 3
DU-145
  GI50: > 100 µM
CAKI-1
  GI50: 63.1 µM
HCT-15
  GI50: 39.8 µM
SK-MEL-28
  GI50: 79.4 µM
